These are literature values, as cited in patent publication US20080011293A1, “Stable Xylometazoline and Oxymetazoline Solution” (priority 1999, published 2008).

Where two headings read alike, the source gives them in different places.

The test system of this data set is Pseudomonas aeruginosa.

In the case of `OC[C@@H](O)[C@@H](O)[C@H](O)[C@@H](O)CO` [sorbitol], the “concentration above which the inhibitory effect sets in” value (pH of 7.4 (neutral)) is “identical”. Besides, the “concentration required to trigger the inhibitory effect” value (under acid conditions) is 40 % by weight.
Regarding `OCC(O)CO` [glycerol], the “concentration above which the inhibitory effect sets in” value is on record as “above 25 % by weight” (pH of 5.6 adjusted using HCl and NaOH); “above 30 % by weight” (pH of 7.4 (neutral)).
